Data: ChEMBL document CHEMBL4619774 (J Med Chem, 2020)

Key:
Coagulation factor XI [1] = target: T1, Coagulation factor XI (Homo sapiens, UniProt P03951); experiment: Inhibition of human F11a using D-Leu-Pro-Arg*Rh110-D-Pro as substrate preincubated for 60 mins followed by substrate addition and measured after 60 mins by fluorescence assay
Complement factor D = Complement factor D (Homo sapiens, UniProt P00746); format: single protein
Plasma kallikrein = Plasma kallikrein (Homo sapiens, UniProt P03952); format: single protein
Coagulation factor XI [2] = target: T1, Coagulation factor XI; experiment: Inhibition of […] human plasma F11a catalytic domain expressed in Escherichia coli strain BL21(DE3) using D-Leu-Pro-Arg*Rh110-D-Pro as substrate preincubated for 60 mins followed by substrate addition and measured after 60 mins by fluorescence assay
Coagulation factor VII = target: T2, Coagulation factor VII (Homo sapiens, UniProt P08709); format: single protein
T2 sequence (P08709 whole entry): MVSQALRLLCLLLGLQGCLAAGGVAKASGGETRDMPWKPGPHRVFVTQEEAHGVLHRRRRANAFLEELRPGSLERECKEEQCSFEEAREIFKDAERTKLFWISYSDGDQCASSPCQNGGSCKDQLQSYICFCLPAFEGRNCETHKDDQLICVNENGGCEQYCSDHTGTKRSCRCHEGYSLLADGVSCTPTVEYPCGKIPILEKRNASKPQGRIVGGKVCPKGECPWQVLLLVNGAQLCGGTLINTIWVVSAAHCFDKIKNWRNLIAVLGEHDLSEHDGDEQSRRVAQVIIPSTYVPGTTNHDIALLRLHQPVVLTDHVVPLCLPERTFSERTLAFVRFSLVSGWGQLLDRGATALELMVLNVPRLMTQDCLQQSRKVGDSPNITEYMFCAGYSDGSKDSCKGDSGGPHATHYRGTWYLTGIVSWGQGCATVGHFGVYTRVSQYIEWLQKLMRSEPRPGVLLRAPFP

Coagulation factor IX = Coagulation factor IX (Homo sapiens, UniProt P00740); format: single protein
Coagulation factor X = Coagulation factor X (Homo sapiens, UniProt P00742); format: single protein
Prothrombin = Prothrombin (Homo sapiens, UniProt P00734); format: single protein
[3] = target: Tissue-type plasminogen activator (Homo sapiens, UniProt P00750); format: single protein
Plasminogen = Plasminogen (Homo sapiens, UniProt P00747); format: single protein
[4] = target: Urokinase-type plasminogen activator (Homo sapiens, UniProt P00749); format: single protein
Plasma = experiment: Anticoagulant activity in human plasma assessed as concentration required to double the activated partial thromboplastin time incubated for 3 mins followed by calcium chloride addition by aPTT-s reagent based automated coagulometric method; format: functional
Homo sapiens = organism: Homo sapiens; experiment: Selectivity ratio of IC50 for inhibition of human complement FD to IC50 for inhibition of human F11a

Sequence of Plasminogen (P00747 97-580 limits assumed): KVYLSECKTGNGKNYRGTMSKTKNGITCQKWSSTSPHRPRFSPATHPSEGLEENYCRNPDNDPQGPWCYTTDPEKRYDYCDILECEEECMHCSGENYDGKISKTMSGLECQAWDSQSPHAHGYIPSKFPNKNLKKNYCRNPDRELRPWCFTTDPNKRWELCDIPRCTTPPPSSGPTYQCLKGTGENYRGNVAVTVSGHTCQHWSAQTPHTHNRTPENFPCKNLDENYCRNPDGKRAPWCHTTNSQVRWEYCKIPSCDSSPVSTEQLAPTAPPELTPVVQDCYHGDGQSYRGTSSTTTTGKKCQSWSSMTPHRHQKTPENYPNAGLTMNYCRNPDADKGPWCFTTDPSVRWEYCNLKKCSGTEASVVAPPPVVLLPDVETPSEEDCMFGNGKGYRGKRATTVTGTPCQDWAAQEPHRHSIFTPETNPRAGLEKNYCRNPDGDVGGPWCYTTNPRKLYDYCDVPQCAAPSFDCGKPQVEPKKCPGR
Sequence of Plasminogen (P00747 581-810 limits assumed): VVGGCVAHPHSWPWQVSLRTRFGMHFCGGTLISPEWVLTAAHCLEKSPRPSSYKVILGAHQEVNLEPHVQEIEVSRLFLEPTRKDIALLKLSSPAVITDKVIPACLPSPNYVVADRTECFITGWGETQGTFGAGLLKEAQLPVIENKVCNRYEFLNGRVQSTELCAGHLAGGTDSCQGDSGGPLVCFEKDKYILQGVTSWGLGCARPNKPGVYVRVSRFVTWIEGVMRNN
Sequence of Tissue-type plasminogen activator (P00750 whole entry): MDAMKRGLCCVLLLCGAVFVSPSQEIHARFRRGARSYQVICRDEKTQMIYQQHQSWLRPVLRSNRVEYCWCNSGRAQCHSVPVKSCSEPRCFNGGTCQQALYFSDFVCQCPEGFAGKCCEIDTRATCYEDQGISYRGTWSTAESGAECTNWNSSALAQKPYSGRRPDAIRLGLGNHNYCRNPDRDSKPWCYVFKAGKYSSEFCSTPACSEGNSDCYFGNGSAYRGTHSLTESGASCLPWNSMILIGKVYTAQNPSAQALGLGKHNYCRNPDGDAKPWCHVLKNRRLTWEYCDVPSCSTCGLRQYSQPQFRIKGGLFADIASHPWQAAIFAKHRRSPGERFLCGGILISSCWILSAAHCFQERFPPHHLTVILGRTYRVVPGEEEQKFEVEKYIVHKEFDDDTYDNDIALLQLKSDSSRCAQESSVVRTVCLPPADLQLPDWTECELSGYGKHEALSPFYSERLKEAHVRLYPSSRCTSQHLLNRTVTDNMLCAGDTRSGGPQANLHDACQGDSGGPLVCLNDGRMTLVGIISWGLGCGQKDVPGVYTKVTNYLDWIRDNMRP
Sequence of Coagulation factor X (P00742 41-179 limits assumed): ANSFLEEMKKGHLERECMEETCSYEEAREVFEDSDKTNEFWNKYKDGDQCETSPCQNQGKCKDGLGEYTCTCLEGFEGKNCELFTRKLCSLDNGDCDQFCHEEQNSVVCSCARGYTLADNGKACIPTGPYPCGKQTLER
Sequence of Coagulation factor X (P00742 235-488 limits assumed): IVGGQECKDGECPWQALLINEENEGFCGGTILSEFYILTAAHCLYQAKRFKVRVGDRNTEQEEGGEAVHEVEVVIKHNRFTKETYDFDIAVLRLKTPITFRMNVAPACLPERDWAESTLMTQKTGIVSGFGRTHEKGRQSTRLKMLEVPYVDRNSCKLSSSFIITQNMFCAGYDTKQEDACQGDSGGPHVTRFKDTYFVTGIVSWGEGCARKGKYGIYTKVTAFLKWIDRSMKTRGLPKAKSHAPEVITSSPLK
Sequence of Coagulation factor IX (P00740 47-191 limits assumed): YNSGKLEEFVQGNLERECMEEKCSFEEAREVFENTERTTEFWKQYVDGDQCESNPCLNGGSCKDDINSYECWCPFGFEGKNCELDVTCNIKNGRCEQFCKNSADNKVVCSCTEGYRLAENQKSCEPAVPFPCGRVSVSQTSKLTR
Sequence of Coagulation factor IX (P00740 227-461 limits assumed): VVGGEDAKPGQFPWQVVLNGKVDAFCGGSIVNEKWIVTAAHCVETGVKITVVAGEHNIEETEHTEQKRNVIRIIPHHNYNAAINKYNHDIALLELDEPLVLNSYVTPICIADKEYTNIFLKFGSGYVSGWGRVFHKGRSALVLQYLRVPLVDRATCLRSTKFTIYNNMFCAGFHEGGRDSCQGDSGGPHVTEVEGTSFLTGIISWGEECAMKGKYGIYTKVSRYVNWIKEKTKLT
T1 sequence (P03951 19-387 limits assumed): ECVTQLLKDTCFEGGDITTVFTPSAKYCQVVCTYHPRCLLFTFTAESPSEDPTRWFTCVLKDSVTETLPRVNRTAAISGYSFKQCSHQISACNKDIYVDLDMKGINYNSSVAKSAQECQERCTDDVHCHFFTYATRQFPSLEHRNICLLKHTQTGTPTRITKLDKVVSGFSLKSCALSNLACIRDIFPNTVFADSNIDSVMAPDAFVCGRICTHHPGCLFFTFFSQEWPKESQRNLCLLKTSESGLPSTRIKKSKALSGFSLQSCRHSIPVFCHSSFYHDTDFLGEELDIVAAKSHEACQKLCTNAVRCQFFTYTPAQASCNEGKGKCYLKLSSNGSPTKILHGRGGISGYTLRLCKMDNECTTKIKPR
T1 sequence (P03951 388-625 limits assumed): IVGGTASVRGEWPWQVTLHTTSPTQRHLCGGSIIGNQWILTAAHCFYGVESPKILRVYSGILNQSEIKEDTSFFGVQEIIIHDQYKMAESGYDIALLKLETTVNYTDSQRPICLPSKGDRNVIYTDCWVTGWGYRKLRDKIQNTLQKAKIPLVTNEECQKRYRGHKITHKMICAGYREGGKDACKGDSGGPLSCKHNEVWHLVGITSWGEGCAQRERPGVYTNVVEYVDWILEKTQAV
Sequence of Plasma kallikrein (P03952 20-390 limits assumed): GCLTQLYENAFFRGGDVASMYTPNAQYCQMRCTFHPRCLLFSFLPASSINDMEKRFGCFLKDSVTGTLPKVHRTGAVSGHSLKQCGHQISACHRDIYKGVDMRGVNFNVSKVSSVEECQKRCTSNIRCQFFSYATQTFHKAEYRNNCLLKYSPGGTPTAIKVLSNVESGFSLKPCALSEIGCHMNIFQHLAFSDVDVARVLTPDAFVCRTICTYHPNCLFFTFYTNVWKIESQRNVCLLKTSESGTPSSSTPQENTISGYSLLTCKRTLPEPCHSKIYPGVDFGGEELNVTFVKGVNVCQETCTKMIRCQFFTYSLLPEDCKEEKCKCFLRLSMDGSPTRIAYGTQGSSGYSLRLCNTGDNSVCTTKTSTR
Sequence of Plasma kallikrein (P03952 391-638 limits assumed): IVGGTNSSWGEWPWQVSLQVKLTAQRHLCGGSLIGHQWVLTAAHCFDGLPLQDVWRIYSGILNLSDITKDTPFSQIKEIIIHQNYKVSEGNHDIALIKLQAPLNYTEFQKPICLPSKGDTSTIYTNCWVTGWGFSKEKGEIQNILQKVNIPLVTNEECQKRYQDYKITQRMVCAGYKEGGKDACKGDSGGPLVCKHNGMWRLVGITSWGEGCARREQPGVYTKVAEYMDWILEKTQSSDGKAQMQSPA
Sequence of Complement factor D (P00746 whole entry): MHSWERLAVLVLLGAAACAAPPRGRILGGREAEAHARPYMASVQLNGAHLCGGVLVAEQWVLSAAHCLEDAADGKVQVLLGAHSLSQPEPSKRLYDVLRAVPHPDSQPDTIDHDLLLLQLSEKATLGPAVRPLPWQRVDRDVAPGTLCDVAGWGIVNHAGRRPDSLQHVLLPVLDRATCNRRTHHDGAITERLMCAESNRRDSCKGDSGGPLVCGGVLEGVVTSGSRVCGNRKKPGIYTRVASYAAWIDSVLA

Compound | IC50 (Coagulation factor XI [1]) [nM] | IC50 (Complement factor D) [nM] | IC50 (Plasma kallikrein) [nM] | IC50 (Coagulation factor XI [2]) [nM] | IC50 (Coagulation factor VII) [nM] | IC50 (Coagulation factor IX) [nM] | IC50 (Coagulation factor X) [nM] | IC50 (Prothrombin) [nM] | IC50 [3] [nM] | IC50 (Plasminogen) [nM] | IC50 [4] [nM] | 2aPTT (Plasma) [µM] | Ratio IC50 (Homo sapiens)
CC(C)(O)c1cc(COc2ccccc2CC(=O)O)cc(-c2ccc3c(c2)CNCC3)c1 | 100 | 230 | 330 | 430 | – | – | – | – | – | – | – | – | –
COc1cccc(C(=O)O)c1OCCc1cc(-c2ccc3c(c2)[C@H](N)CO3)cc(C(C)C)c1 | 3 | 17500 | 9 | 240 | 28300 | 10200 | 6210 | 9090 | 2200 | 30800 | 400 | – | –
NC1COc2ccc(C(=O)N3C[C@@H](c4ccccc4)C[C@H]3C(=O)Nc3cccc(Cl)c3)cc21 (mixture of isomers) | 970 | – | 1200 | – | – | – | – | – | – | – | – | – | –
O=C(O)Cc1ccccc1OCc1cccc(-c2ccc3c(c2)CNCC3)c1 | 400 | 800 | – | – | – | – | – | – | – | – | – | – | –
CC(C)c1cc(-c2ccc3c(c2)[C@H](N)CO3)cc([C@@H]2CNc3cccc(CC(=O)O)c3O2)c1 | < 0.7 | 60 | 1 | 10 | 2000 | 30 | 220 | 30 | 50 | 690 | 20 | 0.4 | –
COc1cccc(C(=O)O)c1OCC(O)c1cc(-c2ccc3c(c2)[C@H](N)CO3)cc(C(C)C)c1 (mixture of isomers) | 40 | 27200 | 160 | 8110 | 12500 | 15500 | 16300 | 7430 | 6680 | 46200 | 1130 | – | –
CC(C)c1cc(CCOc2c(Cl)cccc2C(=O)O)cc(-c2ccc3c(c2)[C@H](N)CO3)c1 | 15 | 34200 | 21 | 5490 | 20500 | 9600 | 11100 | 6220 | 3670 | 34000 | 930 | – | –
NC1COc2ccc(-c3cccc(COc4ccccc4CC(=O)O)c3)cc21 (racemic) | 200 | 340 | 1300 | – | – | – | – | – | – | – | – | – | –
CC(C)c1cc(CCOc2ccccc2C(=O)O)cc(-c2ccc3c(c2)[C@H](N)CO3)c1 | 12 | 1320 | 25 | 1190 | 3270 | 40 | 240 | 50 | 90 | 590 | 20 | – | –
CC(C)c1cc(-c2ccc3c(c2)[C@H](N)CO3)cc(C(O)Cn2ccc3cccc(C(=O)O)c32)c1 (mixture of isomers) | < 0.7 | 8920 | 16 | 45 | 16700 | 13400 | 11200 | 7210 | 3700 | 17400 | 1420 | – | –
Cc1cccc(C(=O)O)c1OCCc1cc(-c2ccc3c(c2)[C@H](N)CO3)cc(C(C)C)c1 | 17 | > 100000 | 41 | 6620 | 45100 | 11300 | 12500 | 9820 | 4130 | > 100000 | 2480 | – | –
CC(C)c1cc(-c2ccc3c(c2)[C@H](N)CO3)cc(C(O)CN2CCc3cccc(C(=O)O)c32)c1 (mixture of isomers) | 2 | 73600 | 2 | 170 | 8750 | 7860 | 1710 | 6140 | 490 | 9580 | 250 | – | 30000
CC(C)c1cc(CCNc2ccccc2C(=O)O)cc(-c2ccc3c(c2)[C@H](N)CO3)c1 | 2520 | – | – | – | – | – | – | – | – | – | – | – | –
